The record followed here is ChEMBL document CHEMBL6153146, “Secondary Metabolites of the Lichen Lethariella cladonioides and Their Neuroprotective Potential” (J Nat Prod, 2025).

Experiment [1] relates to RAW264.7. The experiment is described as follows: Anti-inflammatory activity in mouse RAW264.7 cells assessed as inhibition of LPS-induced NO production incubated for 36 hrs by Griess assay. The conditions noted are these: for IC50: RAW264.7, 36 h. It counts as functional, cell-based.
Experiment [2] concerns RAW264.7. The experiment is described as follows: Anti-inflammatory activity in mouse RAW264.7 cells assessed as alleviation of LPS-induced IL-6 mRNA expression level at 12.5 to 50 uM by qRT-PCR analysis. It counts as functional, cell-based. Particulars: dose 12.5-50 µM. On the technique in general: Real-time PCR tracks product formation cycle by cycle.
Experiment [3] deals with RAW264.7. The experiment is described as follows: Anti-inflammatory activity in mouse RAW264.7 cells assessed as alleviation of LPS-induced IL-1 beta mRNA expression level at 12.5 to 50 uM by qRT-PCR analysis. It counts as functional, cell-based. Particulars: dose 12.5-50 µM.
Experiment [4] deals with RAW264.7. The experiment is described as follows: Anti-inflammatory activity in mouse RAW264.7 cells assessed as alleviation of LPS-induced TNF-alpha mRNA expression level at 12.5 to 50 uM by qRT-PCR analysis. It counts as functional, cell-based. The conditions noted are these: dose 12.5-50 µM.
Experiment [5] has as its system RAW264.7. The experiment can be described thus: Anti-inflammatory activity in mouse RAW264.7 cells assessed as alleviation of LPS-induced cox-2 mRNA expression level at 12.5 to 50 uM by qRT-PCR analysis. The class given is functional, cell-based. Particulars: dose 12.5-50 µM.
Experiment [6] has as its system RAW264.7. The experiment can be described thus: Anti-inflammatory activity in mouse RAW264.7 cells assessed as downregulation of the LPS-induced iNOS expression at 12.5 to 50 uM by qRT-PCR analysis. It counts as functional, cell-based. The conditions noted are these: dose 12.5-50 µM.
For a further experiment, the target named is Acetylcholinesterase (Homo sapiens, UniProt P22303). The experiment can be described thus: Inhibition of AChe (unknown origin) incubated for 0.25 hrs by DTNB-reagent based Ellman's method. (Ellman's reagent forms a yellow product with free thiols.)
Acetylcholinesterase, sequence (P22303 whole entry): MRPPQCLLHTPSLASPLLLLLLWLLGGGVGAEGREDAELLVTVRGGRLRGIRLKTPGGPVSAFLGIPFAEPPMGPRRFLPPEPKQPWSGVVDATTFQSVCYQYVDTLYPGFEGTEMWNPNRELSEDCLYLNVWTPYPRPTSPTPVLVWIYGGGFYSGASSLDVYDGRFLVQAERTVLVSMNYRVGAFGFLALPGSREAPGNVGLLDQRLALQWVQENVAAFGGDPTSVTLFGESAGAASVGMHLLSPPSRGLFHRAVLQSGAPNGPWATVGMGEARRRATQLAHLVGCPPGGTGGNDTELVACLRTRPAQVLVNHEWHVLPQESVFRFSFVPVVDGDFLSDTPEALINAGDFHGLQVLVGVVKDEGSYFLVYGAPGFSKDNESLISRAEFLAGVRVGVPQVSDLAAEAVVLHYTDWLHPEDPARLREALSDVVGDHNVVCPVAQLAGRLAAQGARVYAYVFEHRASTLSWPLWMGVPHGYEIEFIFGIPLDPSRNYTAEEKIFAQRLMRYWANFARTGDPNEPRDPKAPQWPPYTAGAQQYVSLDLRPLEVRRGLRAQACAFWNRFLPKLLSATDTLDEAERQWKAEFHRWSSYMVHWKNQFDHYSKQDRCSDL
Experiment [7] concerns RAW264.7. The experiment can be described thus: Anti-inflammatory activity in mouse RAW264.7 cells assessed as alleviation of LPS-induced IL-6 mRNA expression level at 10 to 40 uM by qRT-PCR analysis. It counts as functional, cell-based. The conditions noted are these: dose 10-40 µM.
Experiment [8] relates to RAW264.7. The experiment can be described thus: Anti-inflammatory activity in mouse RAW264.7 cells assessed as alleviation of LPS-induced IL-1 beta mRNA expression level at 10 to 40 uM by qRT-PCR analysis. The class given is functional, cell-based. The conditions noted are these: dose 10-40 µM.
Experiment [9] has as its system RAW264.7. The experiment can be described thus: Anti-inflammatory activity in mouse RAW264.7 cells assessed as alleviation of LPS-induced TNF-alpha mRNA expression level at 10 to 40 uM by qRT-PCR analysis. It counts as functional, cell-based. Particulars: dose 10-40 µM.
Experiment [10] concerns RAW264.7. The experiment is described as follows: Anti-inflammatory activity in mouse RAW264.7 cells assessed as alleviation of LPS-induced COX-2 mRNA expression level at 10 to 40 uM by qRT-PCR analysis. The class given is functional, cell-based. Particulars: dose 10-40 µM.
Experiment [11] concerns RAW264.7. The experiment is described as follows: Anti-inflammatory activity in mouse RAW264.7 cells assessed as downregulation of the LPS-induced IL-10 mRNA expression at 12.5 to 50 uM by qRT-PCR analysis. It counts as functional, cell-based. The conditions noted are these: dose 12.5-50 µM.

The source made the active and inactive calls. The calls are words filed in the database; no cut-off is given here.

Turning to `CCOC(=O)c1c(C)cc(O)c(Cc2c(C)c(C(=O)OC)c(O)c(C)c2O)c1O`, the IC50 (as a rule, the concentration needed to halve the response being measured) with RAW264.7 [1] stood at 28 µM. Also, the outcome with RAW264.7 [2], with RAW264.7 [3], in the experiment on RAW264.7 [4], in the experiment with RAW264.7 [5] and in the experiment with RAW264.7 [6] was Active.
`CC(=O)C1=C(O)C=C2Oc3c(C(C)=O)c(O)c(C)c(O)c3[C@@]2(C)C1=O` [(+)-USNIC ACID] returned an IC50 at Acetylcholinesterase of 28 µM. In the experiment with RAW264.7 [1], the outcome was inactive.
In the same order, the values of `COC(=O)c1c(C)cc(O)cc1O` [METHYL ORSELLINATE] are 24 µM and “inactive”.
On to `Cc1cc(O)cc(OC(=O)c2c(C)cc(O)c(C=O)c2O)c1`, for which the half-inhibitory concentration (IC50) against Acetylcholinesterase stood at 15 µM. The result with RAW264.7 [1] was inactive.
Take `COC(=O)c1c(C)cc(O)c(Cc2c(C)c(C(=O)OC)c(O)c(C)c2O)c1O`: the half-inhibitory concentration (IC50) in the experiment on RAW264.7 [1] is 20 µM. For the same compound, the outcome with RAW264.7 [7], in the experiment on RAW264.7 [8], in the experiment with RAW264.7 [9] and with RAW264.7 [10] was Active.
`Cc1cc(O)cc(O)c1C(=O)O` [ORSELLINIC ACID]: half-maximal inhibition against Acetylcholinesterase (IC50) required 26 µM. The result with RAW264.7 [1] was inactive.
For the compound `CCOC(=O)c1c(O)cc(O)c(Cc2c(O)cc(C)c(C(=O)OCC)c2O)c1C`, the 50% inhibitory concentration (IC50) against Acetylcholinesterase was 19 µM. In the experiment on RAW264.7 [1], the result was inactive.
For `COCc1c(O)c(Oc2c(C=O)c(O)cc(C)c2C(=O)OC)c2c(c1O)C(=O)O[C@H]2O` the same measures were 7.1 µM and “inactive”.
For `COC(=O)c1c(C)cc(O)c(Cc2c(O)cc(C)cc2O)c1O` the same measures were 15 µM and “inactive”.
For the compound `CCOC(=O)c1c(C)cc(OC(=O)c2c(C)cc(O)cc2O)cc1O`, the midpoint of inhibition against Acetylcholinesterase, the IC50, lay at 15 µM. For the same compound, the result in the experiment with RAW264.7 [1] was inactive.
Turning to `CCOC(=O)c1c(O)cc(O)c(Cc2c(O)cc(C)c(C(=O)OC)c2O)c1C`, the IC50 at Acetylcholinesterase worked out at 20 µM; in the experiment with RAW264.7 [1] it was 35 µM. The result with RAW264.7 [11] was Active.
`OCc1cc(O)cc(O)c1` displayed a 50% inhibitory concentration (IC50) on Acetylcholinesterase of 28 µM. For the same compound, in the experiment on RAW264.7 [1], the outcome was inactive.
Turning to `Cc1cc(O)c(C)c(O)c1`, the IC50 at Acetylcholinesterase stood at 25 µM. Moreover, the result in the experiment with RAW264.7 [1] was inactive.
